From PubChem BioAssay AID330 (DTP/NCI, 2004)
Where “and” joins values, the source holds several entries; their conditions need not be identical. Identical values can stand only once. Toxic doses and inconclusive results are not listed. Rule for the calls: active = survival T/C of 150% or more; inactive = T/C below 125% in these data.

Test system: P388 leukemia ip, CD2F1 mice, survival T/C
Assay: NCI In Vivo Anticancer Drug Screen. Data for tumor model P388 Leukemia (intraperitoneal) in CD2F1 (CDF1) mice
Conditions: endpoint: median survival time, higher = longer survival
How it was run: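 Mice carrying the transplanted tumor received test compound or vehicle. Survival was recorded in each group, and the value is the treated-group measurement divided by that of the vehicle-treated control group.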

[1] = dose: 50.0 mg/kg/injection, schedule: Q01DX009 (ip), vehicle: Klucel (hydroxypropylcellulose) (HPC)
[2] = dose: 100.0 mg/kg/injection, schedule: Q01DX009 (ip), vehicle: Klucel (hydroxypropylcellulose) (HPC)
[3] = dose: 200.0 mg/kg/injection, schedule: Q01DX009 (ip), vehicle: Klucel (hydroxypropylcellulose) (HPC)
[4] = dose: 100.0 mg/kg/injection, schedule: Q04DX003 (ip), vehicle: saline with Tween-80
[5] = dose: 200.0 mg/kg/injection, schedule: Q04DX003 (ip), vehicle: saline with Tween-80
[6] = dose: 100.0 mg/kg/injection, schedule: Q04DX002 (ip), vehicle: saline
[7] = dose: 200.0 mg/kg/injection, schedule: Q04DX002 (ip), vehicle: saline
[8] = dose: 50.0 mg/kg/injection, schedule: Q01DX005 (ip), vehicle: saline
[9] = dose: 100.0 mg/kg/injection, schedule: Q01DX005 (ip), vehicle: saline
[10] = dose: 25.0 mg/kg/injection, schedule: Q01DX009 (ip), vehicle: saline
[11] = dose: 100.0 mg/kg/injection, schedule: Q01DX009 (ip), vehicle: saline with Tween-80
[12] = dose: 200.0 mg/kg/injection, schedule: Q01DX009 (ip), vehicle: saline with Tween-80
[13] = dose: 50.0 mg/kg/injection, schedule: Q01DX009 (ip), vehicle: saline
[14] = dose: 100.0 mg/kg/injection, schedule: Q01DX001 (ip), vehicle: saline with Tween-80
[15] = dose: 200.0 mg/kg/injection, schedule: Q01DX001 (ip), vehicle: saline with Tween-80

Measured: T/C

CCc1cc2c(cc1C(=O)CBr)C(C)(C)CCC2(C)C
inactive: dose: 6.25 mg/kg/injection, schedule: Q01DX009 (ip), vehicle: saline with Tween-80 109 % of control | dose: 12.5 mg/kg/injection, schedule: Q01DX009 (ip), vehicle: saline with Tween-80 113 % of control | dose: 12.5 mg/kg/injection, schedule: Q04DX003 (ip), vehicle: saline with Tween-80 118 % of control | dose: 25.0 mg/kg/injection, schedule: Q04DX003 (ip), vehicle: saline with Tween-80 113 % of control

O=C(Nc1nccs1)Nc1cc(F)ccc1F
inactive: dose: 25.0 mg/kg/injection, schedule: Q01DX009 (ip), vehicle: Klucel (hydroxypropylcellulose) (HPC) 90 % of control | [1] 90 % of control | [2] 90 % of control | [3] 90 % of control

S=C(Nc1cc(Cl)c(Cl)cc1Cl)SCc1ccccc1
inactive: dose: 50.0 mg/kg/injection, schedule: Q01DX009 (ip), vehicle: suspension in saline 93 % of control | dose: 100.0 mg/kg/injection, schedule: Q01DX009 (ip), vehicle: suspension in saline 93 % of control

C=CCOc1ccccc1/C(Cl)=N/Nc1ccc([N+](=O)[O-])cc1[N+](=O)[O-]
inactive: [4] 97 % of control | [5] 94 % of control | dose: 400.0 mg/kg/injection, schedule: Q04DX003 (ip), vehicle: saline with Tween-80 89 % of control

COCCOCCOCCOCCOCCOCCOCCOC(=O)CCn1cc(F)c(=O)[nH]c1=O
inactive: dose: 62.5 mg/kg/injection, schedule: Q04DX002 (ip), vehicle: saline 99 % of control | dose: 125.0 mg/kg/injection, schedule: Q04DX002 (ip), vehicle: saline 108 % of control | dose: 250.0 mg/kg/injection, schedule: Q04DX002 (ip), vehicle: saline 101 % of control | dose: 500.0 mg/kg/injection, schedule: Q04DX002 (ip), vehicle: saline 109 % of control

C/C=C/N1C(=O)C2C=CC1C(C(C)=O)C2 (stereo not given)
inactive: [6] 94 % of control | [7] 98 % of control | dose: 400.0 mg/kg/injection, schedule: Q04DX002 (ip), vehicle: saline 96 % of control

Nc1nc(F)nc2c1nnn2C1OC(CO)C(O)C1O (stereo not given)
inactive: dose: 12.5 mg/kg/injection, schedule: Q01DX001 (ip), vehicle: saline 112 % of control | dose: 25.0 mg/kg/injection, schedule: Q01DX001 (ip), vehicle: saline 109 % of control | dose: 50.0 mg/kg/injection, schedule: Q01DX001 (ip), vehicle: saline 109 % of control | [8] 121 % of control | dose: 100.0 mg/kg/injection, schedule: Q01DX001 (ip), vehicle: saline 104 % of control | [9] 114 % of control

O=C(O)CC(O)(CC(=O)O)C(=O)O.O=C(O)CC(O)(CC(=O)O)C(=O)O.[O]=[Mo]1[O][Mo](=[O])[O]1
inactive: [10] 93 % of control

CCOC(=O)c1nc(C)[nH]c(=O)c1C
inactive: dose: 8.0 mg/kg/injection, schedule: Q01DX009 (ip), vehicle: water 100 % of control | dose: 16.0 mg/kg/injection, schedule: Q01DX009 (ip), vehicle: water 95 % of control | dose: 32.0 mg/kg/injection, schedule: Q01DX009 (ip), vehicle: water 100 % of control | dose: 64.0 mg/kg/injection, schedule: Q01DX009 (ip), vehicle: water 100 % of control | dose: 128.0 mg/kg/injection, schedule: Q01DX009 (ip), vehicle: water 98 % of control

CCCN=C(C)NO
inactive: [8] 98 % of control | [9] 101 % of control | dose: 200.0 mg/kg/injection, schedule: Q01DX005 (ip), vehicle: saline 102 % of control

Cc1ccc2c(c1)C(C(F)(F)F)(C(F)(F)F)OC(C(F)(F)F)(C(F)(F)F)N2
inactive: dose: 50.0 mg/kg/injection, schedule: Q04DX003 (ip), vehicle: saline with Tween-80 104 % of control | [4] 100 % of control | [5] 108 % of control

Nc1cccc2c1C(=O)c1ccc(C(=O)O)cc1C2=O
inactive: dose: 50.0 mg/kg/injection, schedule: Q01DX005 (ip), vehicle: Klucel (hydroxypropylcellulose) (HPC) 101 % of control | dose: 100.0 mg/kg/injection, schedule: Q01DX005 (ip), vehicle: Klucel (hydroxypropylcellulose) (HPC) 104 % of control

CCOc1ccc(-n2c(=O)c(N=Nc3ccccc3OC)c(O)n(-c3ccccc3Cl)c2=S)cc1
inactive: dose: 100.0 mg/kg/injection, schedule: Q01DX001 (ip), vehicle: Klucel (hydroxypropylcellulose) (HPC) 102 % of control | dose: 200.0 mg/kg/injection, schedule: Q01DX001 (ip), vehicle: Klucel (hydroxypropylcellulose) (HPC) 101 % of control | dose: 400.0 mg/kg/injection, schedule: Q01DX001 (ip), vehicle: Klucel (hydroxypropylcellulose) (HPC) 105 % of control

CC(=O)OC[N+]1(C)CCCCC1
inactive: dose: 50.0 mg/kg/injection, schedule: Q01DX009 (ip), vehicle: saline with Tween-80 111 % of control | [11] 106 % of control | [12] 116 % of control

CCCCCCC(=O)C(=O)c1ccc(O)cc1O
inactive: [1] 113 % of control | [2] 109 % of control | [3] 109 % of control

C/C(=N\N)C1C(=O)c2ccccc2C1=O
inactive: dose: 6.25 mg/kg/injection, schedule: Q01DX009 (ip), vehicle: saline 100 % of control | dose: 12.5 mg/kg/injection, schedule: Q01DX009 (ip), vehicle: saline 105 % of control | [10] 101 % of control and 86 % of control | [13] 98 % of control

CC(C)c1cc(C(C)C)c(S(=O)(=O)ON)c(C(C)C)c1
inactive: [6] 112 % of control | [7] 99 % of control

O=C(Nc1ccc([N+](=O)[O-])cc1C(Sc1ccccc1)c1ccccc1)c1ccc([N+](=O)[O-])cc1 (stereo not given)
inactive: [14] 94 % of control | [15] 87 % of control

COc1cc(/C=N/NC(=O)C(=O)N/N=C/c2cc(OC)c(OC)c(OC)c2)cc(OC)c1OC
inactive: [1] 89 % of control | [2] 95 % of control | [3] 93 % of control

CC(C)C(NC(=O)[C@H](C(C)C)N1C(=O)c2ccccc2C1=O)C(=O)O (stereo not given in full)
inactive: dose: 50.0 mg/kg/injection, schedule: Q01DX005 (ip), vehicle: saline with Tween-80 88 % of control | dose: 100.0 mg/kg/injection, schedule: Q01DX005 (ip), vehicle: saline with Tween-80 96 % of control

CC(C)(C)NC/C(C#N)=C\c1ccccc1
inactive: dose: 25.0 mg/kg/injection, schedule: Q01DX001 (ip), vehicle: saline with Tween-80 102 % of control | dose: 50.0 mg/kg/injection, schedule: Q01DX001 (ip), vehicle: saline with Tween-80 99 % of control | [14] 97 % of control

COc1ccc2c(=O)c(Cc3c(-c4ccccc4)[nH]c4ccccc34)coc2c1
inactive: dose: 60.0 mg/kg/injection, schedule: Q01DX005 (ip), vehicle: saline with Tween-80 98 % of control | dose: 120.0 mg/kg/injection, schedule: Q01DX005 (ip), vehicle: saline with Tween-80 91 % of control | dose: 240.0 mg/kg/injection, schedule: Q01DX005 (ip), vehicle: saline with Tween-80 90 % of control

O=C1[C@H]2CCC[C@H]2[C@H]2CCC[C@@H]12
inactive: dose: 25.0 mg/kg/injection, schedule: Q01DX009 (ip), vehicle: saline with Tween-80 112 % of control | [11] 119 % of control | [12] 105 % of control

O=C(CBr)Nc1ccc(Cc2ccc(NC(=O)CBr)cc2)cc1
inactive: [14] 99 % of control | [15] 93 % of control | dose: 400.0 mg/kg/injection, schedule: Q01DX001 (ip), vehicle: saline with Tween-80 94 % of control

CN(C)CCCn1c2ccccc2c2cnccc21
inactive: [10] 100 % of control | dose: 25.0 mg/kg/injection, schedule: Q04DX003 (ip), vehicle: saline 100 % of control | [13] 100 % of control | dose: 50.0 mg/kg/injection, schedule: Q04DX003 (ip), vehicle: saline 95 % of control | dose: 100.0 mg/kg/injection, schedule: Q01DX009 (ip), vehicle: saline 109 % of control | dose: 100.0 mg/kg/injection, schedule: Q04DX003 (ip), vehicle: saline 95 % of control

CCOC(=O)C(CC(=O)O)Cc1cccc(OC)c1OC (stereo not given)
inactive: dose: 25.0 mg/kg/injection, schedule: Q01DX009 (ip), vehicle: other 101 % of control | dose: 50.0 mg/kg/injection, schedule: Q01DX009 (ip), vehicle: other 100 % of control | dose: 100.0 mg/kg/injection, schedule: Q01DX009 (ip), vehicle: other 111 % of control | dose: 200.0 mg/kg/injection, schedule: Q01DX009 (ip), vehicle: other 97 % of control | dose: 400.0 mg/kg/injection, schedule: Q01DX009 (ip), vehicle: other 93 % of control
